How the values were obtained:
Solubility = type: physicochemical; details: dependence on pH
Description: The pharmaceutical composition prepared according to the present invention has a good and uniform dissolution in different dissolution media.

wild-type EGFR = wild-type EGFR (Homo sapiens, UniProt P00533); details: background statement, WO2016054987; cited from earlier work
Permeability = type: in vitro ADME
EGFR T790M mutant = EGFR T790M mutant (Homo sapiens, UniProt P00533, T790M); details: background statement, WO2016054987; cited from earlier work
EGFR T790M mutant, sequence (P00533 25-1210 T790M): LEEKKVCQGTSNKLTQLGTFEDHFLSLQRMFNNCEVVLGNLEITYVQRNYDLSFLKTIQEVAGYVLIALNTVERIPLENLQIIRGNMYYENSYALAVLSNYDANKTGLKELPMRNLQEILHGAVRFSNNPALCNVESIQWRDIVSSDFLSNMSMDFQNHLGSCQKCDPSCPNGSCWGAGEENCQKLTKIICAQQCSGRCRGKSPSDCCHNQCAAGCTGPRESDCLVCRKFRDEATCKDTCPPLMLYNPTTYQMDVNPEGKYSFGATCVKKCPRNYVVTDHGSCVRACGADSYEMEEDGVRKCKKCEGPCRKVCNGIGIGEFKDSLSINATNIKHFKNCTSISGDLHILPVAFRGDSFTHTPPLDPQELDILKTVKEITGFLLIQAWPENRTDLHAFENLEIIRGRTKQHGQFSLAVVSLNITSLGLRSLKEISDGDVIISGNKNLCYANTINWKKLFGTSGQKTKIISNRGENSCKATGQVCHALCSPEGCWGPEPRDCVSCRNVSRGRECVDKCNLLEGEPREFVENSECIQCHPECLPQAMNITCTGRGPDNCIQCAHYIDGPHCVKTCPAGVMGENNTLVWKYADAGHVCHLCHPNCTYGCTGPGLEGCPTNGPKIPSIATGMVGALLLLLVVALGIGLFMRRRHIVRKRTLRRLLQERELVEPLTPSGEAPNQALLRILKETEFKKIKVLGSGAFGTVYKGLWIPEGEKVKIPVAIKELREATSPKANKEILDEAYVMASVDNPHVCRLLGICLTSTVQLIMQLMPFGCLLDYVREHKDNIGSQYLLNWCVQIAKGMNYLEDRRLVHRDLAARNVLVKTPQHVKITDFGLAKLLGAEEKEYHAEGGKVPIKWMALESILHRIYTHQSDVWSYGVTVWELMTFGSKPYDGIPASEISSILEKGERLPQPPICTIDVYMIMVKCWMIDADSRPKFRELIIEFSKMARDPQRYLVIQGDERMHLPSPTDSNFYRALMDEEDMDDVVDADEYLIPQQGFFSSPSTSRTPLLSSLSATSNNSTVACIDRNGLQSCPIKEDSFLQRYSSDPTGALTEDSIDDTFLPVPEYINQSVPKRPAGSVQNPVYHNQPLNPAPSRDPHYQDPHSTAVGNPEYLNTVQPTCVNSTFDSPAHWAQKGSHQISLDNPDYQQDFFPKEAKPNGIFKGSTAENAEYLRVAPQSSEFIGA

wild-type EGFR, sequence (P00533 25-1210): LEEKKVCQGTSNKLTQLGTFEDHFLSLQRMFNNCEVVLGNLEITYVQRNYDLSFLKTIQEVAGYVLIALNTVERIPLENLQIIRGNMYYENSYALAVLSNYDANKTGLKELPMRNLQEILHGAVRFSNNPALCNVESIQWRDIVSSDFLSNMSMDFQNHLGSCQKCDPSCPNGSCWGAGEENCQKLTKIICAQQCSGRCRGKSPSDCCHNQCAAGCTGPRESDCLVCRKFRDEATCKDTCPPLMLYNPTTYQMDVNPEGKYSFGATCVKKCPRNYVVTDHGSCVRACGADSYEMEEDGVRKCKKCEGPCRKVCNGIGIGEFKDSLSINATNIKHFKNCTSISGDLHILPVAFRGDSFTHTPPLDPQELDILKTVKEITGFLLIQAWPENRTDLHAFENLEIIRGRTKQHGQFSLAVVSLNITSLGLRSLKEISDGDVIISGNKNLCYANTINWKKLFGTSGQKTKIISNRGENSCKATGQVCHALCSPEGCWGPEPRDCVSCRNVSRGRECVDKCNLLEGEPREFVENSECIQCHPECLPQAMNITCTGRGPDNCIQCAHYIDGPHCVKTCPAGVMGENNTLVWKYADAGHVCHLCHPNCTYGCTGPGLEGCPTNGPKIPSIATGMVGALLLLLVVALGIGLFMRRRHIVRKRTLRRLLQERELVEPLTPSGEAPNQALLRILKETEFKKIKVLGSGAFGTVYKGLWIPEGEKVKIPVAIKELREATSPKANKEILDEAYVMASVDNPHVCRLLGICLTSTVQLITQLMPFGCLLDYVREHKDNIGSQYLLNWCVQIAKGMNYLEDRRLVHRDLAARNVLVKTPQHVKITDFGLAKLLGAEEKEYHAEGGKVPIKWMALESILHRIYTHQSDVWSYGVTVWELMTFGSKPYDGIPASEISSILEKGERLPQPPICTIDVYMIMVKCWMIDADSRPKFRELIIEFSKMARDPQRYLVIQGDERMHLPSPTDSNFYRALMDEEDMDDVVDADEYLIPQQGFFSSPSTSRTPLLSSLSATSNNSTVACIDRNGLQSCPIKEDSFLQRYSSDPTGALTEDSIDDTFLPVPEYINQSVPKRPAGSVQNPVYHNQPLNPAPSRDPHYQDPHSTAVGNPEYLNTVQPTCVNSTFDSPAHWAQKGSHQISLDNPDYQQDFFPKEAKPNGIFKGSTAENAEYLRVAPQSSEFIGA

C=CC(=O)Nc1cc(Nc2nccc(-c3cn(C4CC4)c4ccccc34)n2)c(OC)cc1N(C)CCN(C)C [compound of formula I, N-(5-((4-(1-cyclopropyl-1H-indol-3-yl)pyrimidin-2-yl)amino)-2-((2-(dimethylamino)ethyl)(methyl)amino)-4-methoxyphenyl)acrylamide]
solubility (Solubility): greatly affected by pH
activity on wild-type EGFR (wild-type EGFR): no or low activity
permeability (Permeability): low permeability
selectivity for inhibiting the EGFR T790M mutant (EGFR T790M mutant): high selectivity
